The text below walks through data of patent publication US20250197343A1, “CATIONIC LIPID” (TAKEDA PHARMACEUTICAL COMPANY LIMITED, priority 2021, published 2025).

Series [1] can be described thus: Particle size of Luc DNA-encapsulated lipid nanoparticles. Type of series: physicochemical. The settings on record: cationic lipid:DPPC:cholesterol:GM-020=60:10.6:28:1.4 molar ratio. The text has this:
The particle size of the lipid particle (in the composition) can be measured by a known approach. For example, the particle size can be calculated as a Z-average particle size by the cumulant analysis of an autocorrelation function using a particle size measurement apparatus Zetasizer Nano ZS (Malvern Instruments) based on a dynamic light scattering measurement technique. The particle size (average particle size) of the lipid particle (in the composition) is, for example, 10 to 200 nm, preferably 60 to 170 nm.
(§1) A lipid mixture containing a cationic lipid of the Examples shown in Table 2 (cationic lipid:DPPC:cholesterol:GM-020=60:10.6:28:1.4, molar ratio) was dissolved in 90% of EtOH and 10% of water to obtain a 15.0 mg/ml lipid solution. Luciferase (luc) DNA (manufactured by Nature Technology Corp.) was dissolved in a 10 mM MES buffer solution (pH 5.5) to obtain a 0.3 mg/ml nucleic acid solution. The obtained lipid solution and nucleic acid solution were mixed at a flow rate ratio of 3 ml/min:6 ml/min at room temperature using NanoAssemblr (manufactured by Precision NanoSystems Inc.) to obtain a dispersion containing Luc DNA-encapsulated lipid nanoparticles. The obtained dispersion was dialyzed against water at room temperature for 1 hour and against PBS at 4° C. for 23 hours using Slyde-A-Lyzer (molecular weight cutoff: 20 K, Thermo Fischer Scientific Inc.). Subsequently, the dialysate was filtered through a 0.2 µm syringe filter (Iwaki). A 60% solution of sucrose in PBS was added thereto, and the mixture was preserved as a 20% solution of sucrose in PBS at −80° C. Analysis results of particle size and rate of encapsulation of the Luc DNA-encapsulated lipid nanoparticles are also shown in Table 2.

Series [2] in a line: Rate of encapsulation of Luc DNA in lipid nanoparticles. To be noted: Luc DNA-encapsulated lipid nanoparticles; cationic lipid:DPPC:cholesterol:GM-020=60:10.6:28:1.4 molar ratio. Type of series: physicochemical. Details: unit: %.
Excerpt: The concentration and rate of encapsulation of the nucleic acid (e.g., siRNA or mRNA) in the composition of the present invention can be measured by a known approach. For example, the nucleic acid is fluorescently labeled using Quant-iT™ RiboGreen® (Invitrogen Corp.), and the fluorescence intensity can be measured to determine the concentration and the rate of encapsulation. The concentration of the nucleic acid in the composition can be calculated using a calibration curve prepared from aqueous nucleic acid solutions having known concentrations. The rate of encapsulation can be calculated on the basis of the difference in fluorescence intensity between the presence and absence of addition of Triton-X 100 (surfactant for disrupting the lipid particle). The concentration of the nucleic acid in the composition refers to the total concentration of a nucleic acid encapsulated in the lipid particle and an unencapsulated nucleic acid. The rate of encapsulation refers to the ratio of the nucleic acid encapsulated in the lipid particle to all nucleic acids in the composition.
as §1

The subject of a further series is ICrl:CD1 (ICR) mice. The series is described as follows: Mouse bioluminescence imaging evaluation (Test Example 1). Type of series: in vivo. The settings on record: Luc DNA-encapsulated lipid nanoparticles 10 mL/kg i.v. to ICR mice; IVIS total flux 15 minutes after luciferin i.p. As to the method:
The Luc DNA-encapsulated lipid nanopatricles obtained in the aforesaid Production Example were intravenously administered to the tails of ICrl:CD1 (ICR) mice (10 mL/kg i.v.). After administration of the lipid particles, luciferin (15 mg/mL) was administered to the mice (10 mL/kg i.p.), which were loaded in an IVIS (in vivo imaging system) apparatus (manufactured by PerkinElmer, Inc.) under isoflurane inhalation anesthesia. Luminescence images of the mice were taken ventrally (in a supine position) 15 minutes after luciferin administration. The luminescence was digitized with the software of IVIS, followed by evaluation using the value of total flux. Higher luminescence means strong expression of the protein encoded by the DNA encapsulate in the lipid particle. In Table 2, higher luminescence is indicated on a scale of A, B and C in order. A represents luminescence of 3.0E+07 or more, B represents luminescence of 1.0E+0.7 or more and less than 3.0E+07, and C represents luminescence of less than 1.0E+07.

As to `CCCCCCCCCOC(=O)CCC(=O)OCC(COC(=O)CCCN(C)C)(COC(=O)CCC(=O)OCCCCCCCCC)COC(=O)CC(CCCCC)CCCCC` [Example 97, 1,1′-[2-({[4-(Dimethylamino)butanoyl]oxy}methyl)-2-{[(3-pentyloctanoyl)oxy]methyl}propane-1,3-diyl] 4,4′-dinonyl dibutanedioate], in series [1], the “Particle size (nm)” value turned out to be 118.7 nm. In addition, the Rate of encapsulation in series [2] stood at 97.8. Also, the Luminescence result in the series on ICrl:CD1 (ICR) mice is “A (A represents luminescence of 3.0E+07 or more)”.
As for `CCCCCCCOC(=O)CCCCC(=O)OCC(COC(=O)CCCCC(=O)OCCCCCCC)(COC(=O)CCCN(C)C)COC(=O)C(CCCCC)CCCCC` [Example 83, 1,1′-[2-({[4-(Dimethylamino)butanoyl]oxy}methyl)-2-{[(2-pentylheptanoyl)oxy]methyl}propane-1,3-diyl] 6,6′-diheptyl dihexanedioate], the “Particle size (nm)” value in series [1] came to 148.7 nm. For the same compound, the Rate of encapsulation in series [2] came to 92.9. Also, the Luminescence entry with ICrl:CD1 (ICR) mice is “B (B represents luminescence of 1.0E+0.7 or more and less than 3.0E+07)”.
Consider `CCCCCC(CCCCC)CC(=O)OCC(COC(=O)CCCCC(=O)OCCCC)(COC(=O)CCCN(CC)CC)COC(=O)CC(CCCCC)CCCCC` [Example 21, Butyl 2-({[4-(diethylamino)butanoyl]oxy}methyl)-3-[(3-pentyloctanoyl)oxy]-2-{[(3-pentyloctanoyl)oxy]methyl}propyl hexanedioate], for which the “Particle size (nm)” value in series [1] stood at 131.4 nm. Further, the Rate of encapsulation in series [2] is on record as 96.2. For the same compound, in the series on ICrl:CD1 (ICR) mice, the Luminescence entry was “B (B represents luminescence of 1.0E+0.7 or more and less than 3.0E+07)”.
Turning to `CCCCCCCOC(=O)CCCCC(=O)OCC(COC(=O)CCCN(C)C)(COC(=O)CC(CCC)CCCCCCC)COC(=O)CC(CCC)CCCCCCC` (stereo not drawn) [Example 31, 2-({[4-(Dimethylamino)butanoyl]oxy}methyl)-3-[(3-propyldecanoyl)oxy]-2-{[(3-propyldecanoyl)oxy]methyl}propyl heptyl hexanedioate], the “Particle size (nm)” value in series [1] turned out to be 97.9 nm. The Rate of encapsulation in series [2] is 97.1. Also, the Luminescence entry in the series on ICrl:CD1 (ICR) mice is “A (A represents luminescence of 3.0E+07 or more)”.
Turning to `CCCCCCCOC(=O)CCCCC(=O)OCC(COC(=O)CCCCC(=O)OCCCCCCC)(COC(=O)CCCN(C)C)COC(=O)CC(CCCC)CCCC` [Example 84, 1,1′-[2-{[(3-Butylheptanoyl)oxy]methyl}-2-({[4-(dimethylamino)butanoyl]oxy}methyl)propane-1,3-diyl] 6,6′-diheptyl dihexanedioate], in series [1], the “Particle size (nm)” value is 172.6 nm. Besides, in series [2], the Rate of encapsulation stood at 93.5. Moreover, the Luminescence result in the series with ICrl:CD1 (ICR) mice is “B (B represents luminescence of 1.0E+0.7 or more and less than 3.0E+07)”.
For the compound `CCCCCCOC(=O)CCCCCCCC(=O)OCC(COC(=O)CCCN(C)C)(COC(=O)CC(CCCCC)CCCCC)COC(=O)CC(CCCCC)CCCCC` [Example 63, 2-({[4-(Dimethylamino)butanoyl]oxy}methyl)-3-[(3-pentyloctanoyl)oxy]-2-{[(3-pentyloctanoyl)oxy]methyl}propyl hexyl nonanedioate], the “Particle size (nm)” value in series [1] turned out to be 90.9 nm. The Rate of encapsulation in series [2] amounted to 98.2. Moreover, the Luminescence entry in the series on ICrl:CD1 (ICR) mice was “C (C represents luminescence of less than 1.0E+07)”.
Take `CCCCCCCCCOC(=O)CCCCC(=O)OCC(COC(=O)CCCN(C)C)(COC(=O)CC(CCCCC)CCCCC)COC(=O)CC(CCCCC)CCCCC` [Example 50, 2-({[4-(Dimethylamino)butanoyl]oxy}methyl)-3-[(3-pentyloctanoyl)oxy]-2-{[(3-pentyloctanoyl)oxy]methyl}propyl nonyl hexanedioate]: in series [1], the “Particle size (nm)” value is recorded as 86.5 nm. In addition, the Rate of encapsulation in series [2] is reported as 98.2. In the series on ICrl:CD1 (ICR) mice, the Luminescence result was “B (B represents luminescence of 1.0E+0.7 or more and less than 3.0E+07)”.
With `CCCCCCCOC(=O)CCCCC(=O)OCC(COC(=O)CCN(C)C)(COC(=O)CC(CCCCC)CCCCC)COC(=O)CC(CCCCC)CCCCC` [Example 15, 2-{[(N,N-Dimethyl-beta-alanyl)oxy]methyl}-3-[(3-pentyloctanoyl)oxy]-2-{[(3-pentyloctanoyl)oxy]methyl}propyl heptyl hexanedioate], in series [1], the “Particle size (nm)” value stood at 89.5 nm. Further, in series [2], the Rate of encapsulation turned out to be 95.9. In addition, the Luminescence result in the series on ICrl:CD1 (ICR) mice was “C (C represents luminescence of less than 1.0E+07)”.
Consider `CCCCCC(CCCCC)CC(=O)OCC(COC(=O)CCCCCCCC(=O)OC)(COC(=O)CCCCCCCC(=O)OC)COC(=O)CCCN(C)C` [Example 35, 1,1′-[2-({[4-(Dimethylamino)butanoyl]oxy}methyl)-2-{[(3-pentyloctanoyl)oxy]methyl}propane-1,3-diyl] 9,9′-dimethyl dinonanedioate], for which the “Particle size (nm)” value in series [1] is listed as 95.1 nm. In series [2], the Rate of encapsulation came out at 96.1. For the same compound, the Luminescence entry in the series with ICrl:CD1 (ICR) mice was “B (B represents luminescence of 1.0E+0.7 or more and less than 3.0E+07)”.
Consider `CCCCCOC(=O)CCCCCCC(=O)OCC(COC(=O)CCCCCCC(=O)OCCCCC)(COC(=O)CCCN(C)C)COC(=O)CC(CCCCC)CCCCC` [Example 129, 1,1′-[2-({[4-(Dimethylamino)butanoyl]oxy}methyl)-2-{[(3-pentyloctanoyl)oxy]methyl}propane-1,3-diyl] 8,8′-dipentyl dioctanedioate], for which the “Particle size (nm)” value in series [1] is listed as 144.9 nm. Further, the Rate of encapsulation in series [2] is 92.6. For the same compound, in the series on ICrl:CD1 (ICR) mice, the Luminescence result is recorded as “A (A represents luminescence of 3.0E+07 or more)”.
For the compound `CCCCCCCOC(=O)CCCCC(=O)OCC(COC(=O)CCCN(C)C)(COC(=O)CC(CCCCC)CCCCC)COC(=O)CC(CCCCC)CCCCC` [Example 16, 2-({[4-(Dimethylamino)butanoyl]oxy}methyl)-3-[(3-pentyloctanoyl)oxy]-2-{[(3-pentyloctanoyl)oxy]methyl}propyl heptyl hexanedioate], the “Particle size (nm)” value in series [1] was 98.4 nm. Besides, the Rate of encapsulation in series [2] is listed as 97.0. Further, the Luminescence result in the series with ICrl:CD1 (ICR) mice was “B (B represents luminescence of 1.0E+0.7 or more and less than 3.0E+07)”.
On to `CCCCCCCOC(=O)CCCCCCCC(=O)OCC(COC(=O)CCCCCCCC(=O)OCCCCCCC)(COC(=O)CCCN(C)C)COC(=O)CC(CCCCC)CCCCC` [Example 60, 1,1′-[2-({[4-(Dimethylamino)butanoyl]oxy}methyl)-2-{[(3-pentyloctanoyl)oxy]methyl}propane-1,3-diyl] 9,9′-diheptyl dinonanedioate], for which the “Particle size (nm)” value in series [1] is on record as 143.9 nm. Besides, in series [2], the Rate of encapsulation is 77.6. The Luminescence result with ICrl:CD1 (ICR) mice was “A (A represents luminescence of 3.0E+07 or more)”.
In the case of `CCCCCC(CCCCC)CC(=O)OCC(COC(=O)CCCCCCCC(=O)OC)(COC(=O)CCCN(C)C)COC(=O)CC(CCCCC)CCCCC` [Example 36, 2-({[4-(Dimethylamino)butanoyl]oxy}methyl)-3-[(3-pentyloctanoyl)oxy]-2-{[(3-pentyloctanoyl)oxy]methyl}propyl methyl nonanedioate], the “Particle size (nm)” value in series [1] is recorded as 127.9 nm. For the same compound, the Rate of encapsulation in series [2] is on record as 95.1. Also, the Luminescence entry with ICrl:CD1 (ICR) mice was “B (B represents luminescence of 1.0E+0.7 or more and less than 3.0E+07)”.
